From ChEMBL document CHEMBL1126846, “Two new unsaturated fatty acid ethanolamides in brain that bind to the cannabinoid receptor” (J Med Chem, 1993)

Target: Cannabinoid receptor (Mus musculus, UniProt P47746+P47936)
Test: Ability to displace [3H]HU-243 binding to cannabinoid receptor in synaptosomal membrane
Assay type: cell membranes

Structure (SMILES) | Ki [nM]
CCCCC/C=C\C/C=C\C/C=C\CCCCCCCC(=O)NCCO | 53.4
CCCCC/C=C\C/C=C\C/C=C\C/C=C\CCCCCC(=O)NCCO | 34.4
